Q: For `COC1=CC(=O)C=C(OC)C1=O` [2,6-dimethoxy-p-benzoquinone], which melting point is on record?
A: The melting point was 255 °C.

Q: For `COc1cccc(OC)c1O` [2,6-dimethoxyphenol], which melting point is on record?
A: The melting point was 55 °C.

Q: With `CC1=CC(=O)C=C(C)C1=O` [2,6-dimethyl-p-benzoquinone] as the compound, how does the melting point read?
A: The melting point was 70 °C.

Q: With `Cc1cccc(C)c1O` [2,6-dimethylphenol] as the compound, how does the melting point read?
A: The melting point was 49 °C.

Q: For `CC(C)CCCCC(C)C` [2,7-dimethyloctane], which melting point is on record?
A: The melting point was -54 °C.

Q: Which melting point does the source give for `O=C(O)c1ccccc1C(=O)Nc1cccc2ccccc12` [2-(1-Naphthylcarbamoyl)benzoic acid] here?
A: Its melting point is 203 °C.

Q: Which melting point does the source give for `CC(Oc1cc(Cl)c(Cl)cc1Cl)C(=O)O` (stereo not given) [2-(2,4,5-trichlorophenoxy)propionic acid] here?
A: The melting point was 178 °C.

Q: For `CC(Oc1ccc(Cl)cc1Cl)C(=O)O` (stereo not given) [2-(2,4-dichlorophenoxy)propionic acid], which melting point is on record?
A: The melting point was 114 °C.

Q: With `CCOCCOCCO` [2-(2-Ethoxyethoxy)ethanol] as the compound, how does the melting point read?
A: Its melting point is -76 °C.

Q: For `O=C(O)/C=C/c1ccccc1B(O)O` [2-(2-carboxyvinyl)benzeneboronic acid], which melting point is on record?
A: The melting point was 171 °C.

Q: For `CC1(c2ccccc2B(O)O)OCCO1` [2-(2-methyl-1,3-dioxolan-2-yl)benzeneboronic acid], which melting point is on record?
A: The melting point was 111 °C.

Q: Which melting point does the source give for `CCCCOCCOCCOC(C)=O` [2-(2-n-butoxyethoxy)ethyl acetate] here?
A: The melting point was -32 °C.

Q: Which melting point does the source give for `NC(=O)C1=C(CCc2ccccc2)CCCC1` [2-(2-phenylethyl)cyclohex-1-ene-1-carboxamide] here?
A: Its melting point is 113 °C.

Q: With `c1cc(C2CNCCN2)cs1` (stereo not given) [2-(3-thienyl)piperazine] as the compound, how does the melting point read?
A: Its melting point is 98 °C.

Q: For `OCCc1ccc(OCc2ccccc2)cc1` [2-(4-benzyloxyphenyl)ethanol], which melting point is on record?
A: The melting point was 86 °C.

Q: For `CCCC1COC(c2ccc(C#N)cc2)OC1` (stereo not given) [2-(4-cyanophenyl)-5-n-propyl-1,3-dioxane], which melting point is on record?
A: The melting point was 58 °C.

Q: Which melting point does the source give for `Fc1ccc(-c2cc3ccccc3[nH]2)cc1` [2-(4-fluorophenyl)indole] here?
A: The melting point was 189 °C.

Q: With `OCCc1ccc(O)cc1` [2-(4-hydroxyphenyl)ethanol] as the compound, how does the melting point read?
A: The melting point was 91 °C.

Q: Which melting point does the source give for `Oc1ccccc1-c1ccno1` [2-(5-isoxazolyl)phenol] here?
A: Its melting point is 185 °C.

Q: With `CNC(C)C(O)c1ccccc1` (stereo not given) [2-(Methylamino)-1-phenylpropan-1-ol] as the compound, how does the melting point read?
A: The melting point was 36 °C.

Q: For `CNCCO` [2-(Methylamino)ethanol], which melting point is on record?
A: Its melting point is -4.5 °C.

Q: Which melting point does the source give for `C=CCSc1ncccc1C(=O)O` [2-(allylthio)nicotinic acid] here?
A: Its melting point is 147 °C.

Q: Which melting point does the source give for `CC(C)(C)OC(=O)Nc1ccccc1B(O)O` [2-(boc-amino)benzeneboronic acid] here?
A: Its melting point is 124 °C.

Q: Which melting point does the source give for `BrCc1nc2ccccc2s1` [2-(bromomethyl)benzothiazole] here?
A: The melting point was 48 °C.

Q: With `CCOC(=O)c1ccccc1B(O)O` [2-(ethoxycarbonyl)benzeneboronic acid] as the compound, how does the melting point read?
A: Its melting point is 132 °C.

Q: With `CCS(=O)(=O)CCO` [2-(ethylsulfonyl)ethanol] as the compound, how does the melting point read?
A: Its melting point is 38 °C.

Q: For `CCSc1ncccc1C(=O)Cl` [2-(ethylthio)nicotinoyl chloride], which melting point is on record?
A: The melting point was 51 °C.

Q: With `COC(=O)c1ccccc1S(N)(=O)=O` [2-(methoxycarbonyl)benzenesulfonamide] as the compound, how does the melting point read?
A: Its melting point is 124 °C.

Q: Which melting point does the source give for `CS(=O)(=O)CCO` [2-(methylsulfonyl)ethanol] here?
A: The melting point was 29 °C.

Q: Which melting point does the source give for `CSc1ccccc1B(O)O` [2-(methylthio)benzeneboronic acid] here?
A: The melting point was 160 °C.

Q: Which melting point does the source give for `CSc1ccccc1C(=O)O` [2-(methylthio)benzoic acid] here?
A: The melting point was 167 °C.

Q: Which melting point does the source give for `CSc1cnccn1` [2-(methylthio)pyrazine] here?
A: The melting point was 44 °C.

Q: With `CCCCCCOCCO` [2-(n-hexyloxy)ethanol] as the compound, how does the melting point read?
A: Its melting point is -42 °C.

Q: With `CCCSc1ncccc1C(N)=O` [2-(n-propylthio)nicotinamide] as the compound, how does the melting point read?
A: Its melting point is 147 °C.

Q: Which melting point does the source give for `OB(O)c1ccccc1C(F)(F)F` [2-(trifluoromethyl)benzeneboronic acid] here?
A: The melting point was 109 °C.

Q: With `FC(F)(F)c1ccccc1CBr` [2-(trifluoromethyl)benzyl bromide] as the compound, how does the melting point read?
A: Its melting point is 29 °C.

Q: With `Oc1ccccc1C(F)(F)F` [2-(trifluoromethyl)phenol] as the compound, how does the melting point read?
A: The melting point was 46 °C.

Q: With `NCC(O)c1ccccc1` (stereo not given) [2-Amino-1-phenylethanol] as the compound, how does the melting point read?
A: The melting point was 57 °C.

Q: Which melting point does the source give for `Nc1nc2ccc([N+](=O)[O-])cc2s1` [2-Amino-6-nitrobenzothiazole] here?
A: The melting point was 248 °C.

Q: Which melting point does the source give for `Nc1ccc2c(c1)C(=O)c1ccccc1C2=O` [2-Amino-9,10-anthraquinone] here?
A: The melting point was 295 °C.

Q: For `O=C1c2ccccc2C(C2=CCCCC2)N1Cc1ccccc1` (stereo not given) [2-Benzyl-3-cyclohexenylisoindolin-1-one], which melting point is on record?
A: The melting point was 110 °C.

Q: For `O=[N+]([O-])c1cc(C(F)(F)F)cc([N+](=O)[O-])c1Cl` [2-Chloro-1,3-dinitro-5-(trifluoromethyl)benzene], which melting point is on record?
A: Its melting point is 57 °C.

Q: For `O=C(CCl)c1ccccc1` [2-Chloro-1-phenylethanone], which melting point is on record?
A: Its melting point is 55 °C.

Q: With `CCC(C)(C)Cl` [2-Chloro-2-methylbutane] as the compound, how does the melting point read?
A: Its melting point is -73 °C.

Q: Which melting point does the source give for `Cc1cc(Cl)nc2ccccc12` [2-Chloro-4-methylquinoline] here?
A: The melting point was 56.9 °C.

Q: Which melting point does the source give for `O=C(O)c1ccccc1Cl` [2-Chlorobenzoic acid] here?
A: The melting point was 142 °C.

Q: Which melting point does the source give for `CC(Cl)C(=O)O` (stereo not given) [2-Chloropropanoic acid] here?
A: The melting point was -13 °C.

Q: Which melting point does the source give for `CCCCC(CC)CO` (stereo not given) [2-Ethylhexan-1-ol] here?
A: The melting point was -76 °C.

Q: With `CCc1ccccc1O` [2-Ethylphenol] as the compound, how does the melting point read?
A: Its melting point is -28 °C.

Q: For `NC(=O)CI` [2-Iodoacetamide], which melting point is on record?
A: The melting point was 94 °C.

Q: Which melting point does the source give for `CCC(C)I` (stereo not given) [2-Iodobutane] here?
A: The melting point was -104 °C.

Q: With `CC1CCC(C(C)C)C(O)C1` (stereo not given) [2-Isopropyl-5-methylcyclohexanol] as the compound, how does the melting point read?
A: The melting point was 34.5 °C.

Q: With `Cc1ccccc1C(=O)O` [2-Methylbenzoic acid] [listing 1 of 2 here] as the compound, how does the melting point read?
A: Its melting point is 108 °C.

Q: With `Cc1ccccc1C(=O)O` [2-Methylbenzoic acid] [listing 2 of 2 here] as the compound, how does the melting point read?
A: Its melting point is 105 °C.

Q: For `CC=C(/C)C` [2-Methylbut-2-ene], which melting point is on record?
A: The melting point was -134 °C.

Q: With `CC(C)C=O` [2-Methylpropanal] as the compound, how does the melting point read?
A: The melting point was -65 °C.

Q: For `CC(C)C#N` [2-Methylpropanenitrile], which melting point is on record?
A: The melting point was -72 °C.

Q: For `CC(CC(=O)O)C(=O)O` (stereo not given) [2-Methylsuccinic acid], which melting point is on record?
A: Its melting point is 111 °C.

Q: With `CC(C)[N+](=O)[O-]` [2-Nitropropane] as the compound, how does the melting point read?
A: Its melting point is -93 °C.

Q: Which melting point does the source give for `COc1ccc(C=CC(=O)c2ccc(O)cc2)cc1` [2-Propen-1-one, 1-(4-hydroxyphenyl)-3-(4-methoxyphenyl)-] here?
A: The melting point was 188 °C.

Q: Which melting point does the source give for `O=C(C=Cc1ccc([N+](=O)[O-])cc1)c1ccccc1` [2-Propen-1-one, 3- (4-nitrophenyl)-1-phenyl-] here?
A: The melting point was 161 °C.

Q: With `O=[N+]([O-])c1ccccc1C=Cc1ccc2ccccc2n1` [2-[2-(2-Nitro-phenyl)-vinyl]-quinoline] as the compound, how does the melting point read?
A: Its melting point is 102 °C.

Q: For `O=[N+]([O-])c1ccccc1C#Cc1ccccn1` [2-[(2-nitrophenyl)ethynyl]pyridine], which melting point is on record?
A: The melting point was 55 °C.

Q: Which melting point does the source give for `O=[N+]([O-])c1ccccc1/C=C(/Cl)c1ccccn1` [2-[(E)-1-chloro-2-(2-nitrophenyl)ethenyl]pyridine] here?
A: Its melting point is 61 °C.

Q: With `CC(=O)Nc1ccc(N)cn1` [2-acetamido-5-aminopyridine] as the compound, how does the melting point read?
A: Its melting point is 149 °C.

Q: With `CC(=O)Nc1ccccc1O` [2-acetamidophenol] as the compound, how does the melting point read?
A: Its melting point is 207 °C.

Q: Which melting point does the source give for `CC(=O)c1ccccc1C(=O)O` [2-acetylbenzoic acid] here?
A: The melting point was 117 °C.

Q: For `CC(=O)c1ccccc1-c1ccccc1` [2-acetylbiphenyl], which melting point is on record?
A: The melting point was 56 °C.

Q: With `NC1=NCCS1` [2-amino-2-thiazoline] as the compound, how does the melting point read?
A: The melting point was 80 °C.

Q: With `Nc1c(Br)cc(Br)cc1C(=O)O` [2-amino-3,5-dibromobenzoic acid] as the compound, how does the melting point read?
A: Its melting point is 233 °C.

— the Bradley open melting point set (2014)
